Reference: paper PMC2362650, “Phase I and pharmacokinetic study of the topoisomerase II catalytic inhibitor fostriecin” (British Journal of Cancer, 1999)

Experiment: Phase I study: toxicity graded with NCI common toxicity criteria in patients
Format: in vivo, human
Source text: Fostriecin (CI-920) is a topoisomerase (topo) II catalytic activity inhibitor (Boritzki et al, 1988) (Figure 1). This novel class of topo II-targeting drugs is considered of potential value for treatment of patients with tumours resistant to classic topo II poisons, including anthracyclines and podophyllotoxins (Cummings and Smyth, 1993). The nuclear enzyme topo II is essential for the regulation of DNA conformation (reviewed in Osheroff et al, 1991). Central in its action is the formation of a complex with DNA. Stabilization of this complex by topo II poisons induces DNA damage and cell death (Froelich-Ammon and Osheroff, 1995). Decreased complex formation due to decreased topo II levels is considered to be an important mechanism of tumour-resistance to topo II poisons (Beck and Danks, 1991). The topo II catalytic inhibitor fostriecin is expected to have increased activity against tumour cells with low topo II levels and this was confirmed in in vitro studies (De Jong et al, 1991). […] Because of increased toxi- city of fostriecin in dogs compared to mice, a dose below one-third of the one-tenth mouse equivalent LD10, 2 mg m-2 day-1, was chosen as starting dose in humans (Clinical Brochure Fostriecin, 1991). […] We also performed an analysis of the human pharmacokinetics of fostriecin and ex vivo experiments to investigate if the plasma drug concentrations achieved were sufficient to inhibit a tenipo- side-resistant tumour cell line. The maximum tolerated dose (MTD) of fostriecin could not be established because drug supply was stopped prematurely. However, results of this study may provide a basis for continued clinical development of this agent. PATIENTS AND METHODS Patient selection, drug administration and evaluation Patient eligibility criteria were: histologically confirmed diagnosis of a solid tumour, no longer amenable to established forms of treatment; age 18-75 years; Eastern Cooperative Oncology Group (ECOG) performance status 2; life expectancy 12 weeks; no Phase I and pharmacokinetic study of the topoisomerase II catalytic inhibitor fostriecin RS de Jong1, NH Mulder1, DRA Uges2, DTh Sleijfer1, FJP Hoppener4, HJM Groen3, PHB Willemse1, WTA van der Graaf1 and EGE de Vries1 Departments of 1Medical Oncology, 2Pharmacy and Toxicology, and 3Pulmonary Diseases, University Hospital Groningen, The Netherlands; 4EORTC New Drug Development Office, Amsterdam, The Netherlands Summary We conducted a phase I and pharmacokinetic study of the topoisomerase II catalytic inhibitor fostriecin. Fostriecin was administered intravenously over 60 min on days 1-5 at 4-week intervals. Dose was escalated from 2 mg m-2 day-1 to 20 mg m-2 day-1 in 20 patients. Drug pharmacokinetics was analysed with high performance liquid chromatography with UV-detection. Plasma collected during drug administration was tested in vitro for growth inhibition of a teniposide-resistant small-cell lung cancer (SCLC) cell line. The predominant toxicities were elevated liver transaminases (maximum common toxicity criteria (CTC) grade 4) and serum creatinine (maximum CTC grade 2). […] Duration of elevated alanine-amino transferase (ALT) was dose-limiting in one patient at 20 mg m-2. Other frequent toxicities were grade 1-2 nausea/vomiting, fever and mild fatigue. […] A metabolite, most probably dephosphorylated fostriecin, was detected in plasma and urine. […] However, further escalation seems possible and is warranted to achieve potentially effective drug levels. Fostriecin has a short plasma half-life and longer duration of infusion should be considered. […]

[1] = 12.2 mg m-2, 3 patients/8 courses
[2] = 20 mg m-2, 2 patients/4 courses
[3] = one patient at 20 mg m-2 after course 2

C[C@@](O)(/C=C/[C@H]1CC=CC(=O)O1)[C@@H](C[C@@H](O)\C=C/C=C\C=C\CO)OP(=O)(O)O [fostriecin]
one: number of patients with dose-limiting ALT elevation (grade 3 persisting > 7 days) (20 mg m-2) | number of patients with reversible thrombocytopenia (grade 2) (20 mg m-2) | number of patients with transient proteinuria grade 2 (doses 10 mg m-2 (and above)) | number of patients with fever > 39C (human, in vivo) | number of patients with grade 2 hyponatraemia (human, in vivo) | number of patients with grade 2 oedema (human, in vivo)
33: number of courses with nausea/vomiting (grade 1-2) (of the 42 courses at full dose)
1: CTC-grade 1 ALP: patients developing toxicity in first course [1] | CTC-grade 1 GGT: patients developing toxicity in first course [1] | CTC-grade 1 creatinine: patients developing toxicity in first course [1] | CTC-grade 2 ALP: courses causing toxicity, all full-dose courses [1] | CTC-grade 2 ALT: courses causing toxicity, all full-dose courses [1] | CTC-grade 2 GGT: patients developing toxicity in first course [1] | CTC-grade 3 GGT: patients developing toxicity in first course [1] | CTC-grade 3 bilirubin: courses causing toxicity, all full-dose courses [1] | CTC-grade 4 ALT: courses causing toxicity, all full-dose courses [1] | CTC-grade 4 ALT: patients developing toxicity in first course [1] | CTC-grade 1 GGT: patients developing toxicity in first course [2] | CTC-grade 1 creatinine: courses causing toxicity, all full-dose courses [2] | CTC-grade 1 creatinine: patients developing toxicity in first course [2] | CTC-grade 2 ALT: patients developing toxicity in first course [2] | CTC-grade 2 AST: courses causing toxicity, all full-dose courses [2] | CTC-grade 2 creatinine: patients developing toxicity in first course [2] | CTC-grade 3 ALT: patients developing toxicity in first course [2] | CTC-grade 3 AST: patients developing toxicity in first course [2] | CTC-grade 3 GGT: patients developing toxicity in first course [2]
3: CTC-grade 1 ALP: courses causing toxicity, all full-dose courses [1] | CTC-grade 2 AST: courses causing toxicity, all full-dose courses [1] | CTC-grade 2 creatinine: courses causing toxicity, all full-dose courses [1] | CTC-grade 3 AST: patients developing toxicity in first course [1]
5: CTC-grade 1 creatinine: courses causing toxicity, all full-dose courses [1]
2.5 days: day of ALT peak per course (median)
has not been reached: maximum tolerated dose (MTD) (escalation stopped at 20 mg m-2)
17: number of patients with occasional increase of body temperature (human, in vivo, intravenous)
14: number of patients with increase of body temperature during course 1 (human, in vivo, intravenous, 1 course (days 1-5, 4-week interval))
three: number of patients with grade 2 LDH increases (human, in vivo)
seven: number of patients with microscopic haematuria (grade 1) (doses 6.6 mg m-2 (and above)) | number of patients with transient proteinuria grade 1 (doses 10 mg m-2 (and above)) | number of patients with hyperglycaemia grade 1-2 and/or hypoglycaemia grade 1 (human, in vivo)
≤ 3 weeks: time to resolution of ALT and AST elevations after drug administration (all patients)
3 days: day of serum creatinine peak (median)
four: number of patients with reversible increases of bilirubin (human, in vivo)
3.5 days: median duration of grade 3 ALT (range 1-9 days)
not affected: PT, fibrinogen, anti-thrombin III and cholinesterase levels (six patients (13 courses) at 10-20 mg m-2, days 0 and 5)
six: number of patients with fever > 38C (grade 2) (human, in vivo)
1-2 weeks: time to resolution of renal toxicities after last dose of each course (human, in vivo, intravenous)
No leuco- or neutropenia: leuco- or neutropenia (human, in vivo)
28 g/L: serum albumin (hypoalbuminaemia) [3]
2: CTC-grade 1 GGT: courses causing toxicity, all full-dose courses [1] | CTC-grade 2 GGT: courses causing toxicity, all full-dose courses [1] | CTC-grade 2 bilirubin: patients developing toxicity in first course [1] | CTC-grade 2 creatinine: patients developing toxicity in first course [1] | CTC-grade 3 ALT: patients developing toxicity in first course [1] | CTC-grade 3 GGT: courses causing toxicity, all full-dose courses [1] | CTC-grade 1 ALP: courses causing toxicity, all full-dose courses [2] | CTC-grade 1 ALP: patients developing toxicity in first course [2] | CTC-grade 1 GGT: courses causing toxicity, all full-dose courses [2] | CTC-grade 2 ALT: courses causing toxicity, all full-dose courses [2] | CTC-grade 2 creatinine: courses causing toxicity, all full-dose courses [2] | CTC-grade 3 ALT: courses causing toxicity, all full-dose courses [2] | CTC-grade 3 AST: courses causing toxicity, all full-dose courses [2] | CTC-grade 3 GGT: courses causing toxicity, all full-dose courses [2] | maximum CTC grade of elevated serum creatinine (human, serum, intravenous)
6: CTC-grade 2 bilirubin: courses causing toxicity, all full-dose courses [1] | CTC-grade 3 ALT: courses causing toxicity, all full-dose courses [1]
4: CTC-grade 3 AST: courses causing toxicity, all full-dose courses [1] | maximum CTC grade of elevated liver transaminases (human, blood, intravenous)
Eight: number of patients with mild fatigue (grade 1-2) (during drug administration and the week thereafter)
11: number of patients with nausea/vomiting (grade 1-2) during course 1 (20 patients) | number of courses with fever > 38C (grade 2) (human, in vivo, intravenous)
0: CTC-grade 1 ALT: courses causing toxicity, all full-dose courses [1] | CTC-grade 1 ALT: patients developing toxicity in first course [1] | CTC-grade 1 AST: courses causing toxicity, all full-dose courses [1] | CTC-grade 1 AST: patients developing toxicity in first course [1] | CTC-grade 2 ALP: patients developing toxicity in first course [1] | CTC-grade 2 ALT: patients developing toxicity in first course [1] | CTC-grade 2 AST: patients developing toxicity in first course [1] | CTC-grade 3 bilirubin: patients developing toxicity in first course [1] | CTC-grade 1 ALT: courses causing toxicity, all full-dose courses [2] | CTC-grade 1 ALT: patients developing toxicity in first course [2] | CTC-grade 1 AST: courses causing toxicity, all full-dose courses [2] | CTC-grade 1 AST: patients developing toxicity in first course [2] | CTC-grade 2 AST: patients developing toxicity in first course [2] | CTC-grade 2 GGT: courses causing toxicity, all full-dose courses [2] | CTC-grade 2 GGT: patients developing toxicity in first course [2]
Fourteen: number of patients with grade 1-2 anaemia (human, in vivo)
3.3 g 24 h-1: maximum transient proteinuria [3]
